Molecular target: ATP-dependent translocase ABCB1 (Homo sapiens, UniProt P08183)
Experiment: TP_TRANSPORTER: transepithelial transport (basal to apical) in HCT-8 cells
Assay type: functional, cell-based

ATP-dependent translocase ABCB1, sequence (P08183 whole entry): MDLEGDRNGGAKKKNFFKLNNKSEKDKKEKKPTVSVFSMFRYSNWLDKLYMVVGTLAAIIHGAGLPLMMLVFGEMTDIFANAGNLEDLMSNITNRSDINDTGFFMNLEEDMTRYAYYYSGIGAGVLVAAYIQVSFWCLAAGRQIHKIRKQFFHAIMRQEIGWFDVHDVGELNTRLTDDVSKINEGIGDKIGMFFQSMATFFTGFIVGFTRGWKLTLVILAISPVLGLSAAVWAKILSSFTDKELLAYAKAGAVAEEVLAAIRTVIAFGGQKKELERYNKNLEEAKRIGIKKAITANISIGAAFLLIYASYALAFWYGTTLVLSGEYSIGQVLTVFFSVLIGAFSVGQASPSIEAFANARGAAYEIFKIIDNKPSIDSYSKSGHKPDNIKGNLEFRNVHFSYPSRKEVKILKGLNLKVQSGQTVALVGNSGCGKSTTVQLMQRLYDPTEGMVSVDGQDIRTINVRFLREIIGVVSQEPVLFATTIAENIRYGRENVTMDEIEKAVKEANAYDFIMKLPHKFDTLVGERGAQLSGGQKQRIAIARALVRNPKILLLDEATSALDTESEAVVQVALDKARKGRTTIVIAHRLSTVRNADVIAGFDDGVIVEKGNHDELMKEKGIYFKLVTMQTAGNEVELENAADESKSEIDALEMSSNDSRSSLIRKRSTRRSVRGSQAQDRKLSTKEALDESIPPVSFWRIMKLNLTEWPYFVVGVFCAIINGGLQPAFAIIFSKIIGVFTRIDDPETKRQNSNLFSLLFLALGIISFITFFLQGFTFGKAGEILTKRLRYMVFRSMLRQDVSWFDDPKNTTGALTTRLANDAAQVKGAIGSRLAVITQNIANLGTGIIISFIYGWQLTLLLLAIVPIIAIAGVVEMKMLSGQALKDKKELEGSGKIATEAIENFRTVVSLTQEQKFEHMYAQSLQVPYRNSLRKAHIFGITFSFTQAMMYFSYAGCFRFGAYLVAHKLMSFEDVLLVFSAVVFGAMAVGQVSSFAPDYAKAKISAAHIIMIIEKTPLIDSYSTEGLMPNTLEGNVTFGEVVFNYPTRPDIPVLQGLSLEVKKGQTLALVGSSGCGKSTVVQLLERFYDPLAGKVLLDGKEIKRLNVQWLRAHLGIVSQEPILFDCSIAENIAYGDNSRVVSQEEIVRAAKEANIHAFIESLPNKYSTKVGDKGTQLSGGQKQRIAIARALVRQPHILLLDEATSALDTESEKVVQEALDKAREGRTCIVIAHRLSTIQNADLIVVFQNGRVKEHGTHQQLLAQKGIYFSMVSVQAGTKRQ

Activity: is not a substrate [-]
SMILES: CO[C@H]1C[C@@H]2CC[C@@H](C)[C@@](O)(O2)C(=O)C(=O)N2CCCC[C@H]2C(=O)O[C@H]([C@H](C)C[C@@H]2CC[C@@H](O)[C@H](OC)C2)CC(=O)[C@H](C)/C=C(\C)[C@@H](O)[C@@H](OC)C(=O)[C@H](C)C[C@H](C)/C=C/C=C/C=C/1C [SIROLIMUS]

From ChEMBL document CHEMBL2074450 (J Pharmacol Exp Ther, 2002)
